The numbers were not newly measured in patent US7132450B2, “Hepatic disorder suppressant” (Kagome Co., Ltd., priority 2000, dated 2006), which cites them from elsewhere.

One data set concerns NO and O2^− generation. Particulars: reported in literature.
The conditions of data set [1]: reported in literature.

`CCCCC/C=C\C/C=C\CCCCC/C=C/C(=O)CC(O)COC(C)=O` (stereo not drawn) [Compound 4]: in the data set on NO and O2^− generation, the “inhibitory effect on NO and O2^− generation” value is “has inhibitory effect on NO and O2^− generation”.
Turning to `CCCCC/C=C\C/C=C\CCCCCCCC(=O)CC(O)COC(C)=O` (stereo not drawn) [Compound 5, persin], in the data set on NO and O2^− generation, the “inhibitory effect on NO and O2^− generation” value was “inhibitory effect on NO and O2^− generation”. Moreover, the growth suppressing effect entry in data set [1] is “various growth suppressing effect”.
